How the values were obtained:
EonuCSP 6-1 = EonuCSP 6-1 (Empoasca onukii, UniProt A0A343WH12); test: Competitive fluorescence binding assay (1-NPN probe) with recombinant EonuCSP6-1
Procedure: (§1) N-phenyl-1-naphthylamine (1-NPN) was used as the fluorescent probe. The excitation wavelength in the fluorescence spectrometer was set to 337 nm, which was the results of an optimization that we achieved in lab. The scanning wavelength was 420–600 nm.
(§2) The tested chemicals were dissolved in methanol in preparation for 1 mM stock solution. […] We determined the binding constants of 1-NPN by Scatchard formula. […] The binding affinities of the competitors were evaluated from the corresponding IC50 according to the equation: K i = IC50/(1 + [1-NPN]/K1-NPN).

E. onukii adults = test: Y-tube olfactometer assay (behavioral response); assay type: in vivo, Empoasca onukii; conditions: 20 μL of 10 μg/μL in methanol, 90 adults per volatile
Procedure: We use a Y-tube olfactometer (1.5 cm in diameter, arms with 8 cm length, and a stem with 18 cm length) to detect the behavioral response of E. onukii to volatiles. The incoming air to the tube was firstly filtered using active carbon and then humidified with the ultrapure water. The air through the arms was blown at a constant flow ([…]). A total of 20 μL tested volatile oil (10 μg/μL in methanol (HPLC)) pipetted onto 1 cm diameter filter paper. This filter paper was placed in the chamber, which connected to one arm of the Y-tube olfactometer. As control, the same filter paper treated with 20 μL of methanol was placed in the chamber connected to another arm of the Y-tube. This experiment was performed in the dark room, which employed a light-emitting diode as the light source. Each adult was introduced into the middle of the stem of the Y-tube and the individuals that made a choice within 8 min were recorded. Individuals moving toward the odorant source for half of the arm distance and stayed for 1 minute were recorded as odorant choice. For each volatile component, 90 adult were used. After 10 insects were tested, the Y-tube olfactometer was washed with 75% ethanol and air-dried, and tested volatiles were placed in another arm for the subsequent tests.

EonuCSP4 = EonuCSP4 (Empoasca onukii, UniProt A0A343WGZ9); test: Competitive fluorescence binding assay (1-NPN probe) with recombinant EonuCSP4
Chain of EonuCSP4 (A0A343WGZ9 entry or part of it): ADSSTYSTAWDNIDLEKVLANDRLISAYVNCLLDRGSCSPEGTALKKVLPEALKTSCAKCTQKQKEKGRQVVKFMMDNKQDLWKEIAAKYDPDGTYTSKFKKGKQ
Procedure: as §1, §2

EonuCSP6-2 = EonuCSP6-2 (Empoasca onukii, UniProt A0A343WH13); test: Competitive fluorescence binding assay (1-NPN probe) with recombinant EonuCSP6-2
Chain of EonuCSP6-2 (A0A343WH13 entry or part of it): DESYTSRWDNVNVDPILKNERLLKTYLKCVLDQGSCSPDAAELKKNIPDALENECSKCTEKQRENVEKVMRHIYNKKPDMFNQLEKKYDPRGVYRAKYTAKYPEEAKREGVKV
Procedure: as §1, §2

Chain of EonuCSP 6-1 (A0A343WH12 entry or part of it): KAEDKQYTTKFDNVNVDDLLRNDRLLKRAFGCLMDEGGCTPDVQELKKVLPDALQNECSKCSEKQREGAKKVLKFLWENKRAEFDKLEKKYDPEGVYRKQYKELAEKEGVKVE

For `O=Cc1ccccc1` [Benzaldehyde], the IC50 (EonuCSP 6-1) was greater than 20 µM and the “behavioral response of E. onukii adults (choice versus methanol control)” value (E. onukii adults) was “significant preference”.

For `CC/C=C\CCOC(=O)CCCC` [Cis-3-Hexenyl n-valerate], the “behavioral response of E. onukii adults (choice versus methanol control)” value (E. onukii adults) was “significant preference”.

`c1ccc(Nc2cccc3ccccc23)cc1` [1-NPN, N-phenyl-1-naphthylamine] gave a Kd (EonuCSP4) of 11 µM, a Kd (EonuCSP 6-1) of 12.5 µM and a Kd (EonuCSP6-2) of 10.2 µM.

Source: paper PMC9845707, “Involvement of three chemosensory proteins in perception of host plant volatiles in the tea green leafhopper, Empoasca onukii” (Frontiers in Physiology, 2023)
